Experiments:
[1] = target: T1, Or85a (OR/ORCO complex in Or85a-OSNs) (Drosophila melanogaster, UniProt Q9VHS4); test: perforated patch clamp of Or85a-OSNs, outward receptor current (reduction of basal current); type: cell-based; details: 150-ms odor pulses, -80 mV; inhibits constitutive activity (inverse agonist), competitive against ethyl 3-hydroxybutyrate; Hill fit, n = 4; read-out: K 1/2
T1 construct: native receptor in Or85a-expressing olfactory sensory neurons, antennal slices; GFP-labelled via Or85a-Gal4; with Odorant receptor coreceptor
T1 sequence (Q9VHS4 1-397): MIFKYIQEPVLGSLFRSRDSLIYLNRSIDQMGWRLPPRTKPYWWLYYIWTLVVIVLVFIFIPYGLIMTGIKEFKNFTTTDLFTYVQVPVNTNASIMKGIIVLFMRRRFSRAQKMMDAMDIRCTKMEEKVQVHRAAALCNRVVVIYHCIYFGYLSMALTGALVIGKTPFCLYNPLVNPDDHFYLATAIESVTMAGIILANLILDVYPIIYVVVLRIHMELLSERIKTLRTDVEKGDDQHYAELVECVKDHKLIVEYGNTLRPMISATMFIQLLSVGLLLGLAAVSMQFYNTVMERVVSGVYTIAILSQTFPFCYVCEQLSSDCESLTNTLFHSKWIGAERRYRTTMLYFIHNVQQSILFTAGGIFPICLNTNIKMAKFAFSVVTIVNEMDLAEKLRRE
T1 sequence (Q9VNB5 1-486 partner): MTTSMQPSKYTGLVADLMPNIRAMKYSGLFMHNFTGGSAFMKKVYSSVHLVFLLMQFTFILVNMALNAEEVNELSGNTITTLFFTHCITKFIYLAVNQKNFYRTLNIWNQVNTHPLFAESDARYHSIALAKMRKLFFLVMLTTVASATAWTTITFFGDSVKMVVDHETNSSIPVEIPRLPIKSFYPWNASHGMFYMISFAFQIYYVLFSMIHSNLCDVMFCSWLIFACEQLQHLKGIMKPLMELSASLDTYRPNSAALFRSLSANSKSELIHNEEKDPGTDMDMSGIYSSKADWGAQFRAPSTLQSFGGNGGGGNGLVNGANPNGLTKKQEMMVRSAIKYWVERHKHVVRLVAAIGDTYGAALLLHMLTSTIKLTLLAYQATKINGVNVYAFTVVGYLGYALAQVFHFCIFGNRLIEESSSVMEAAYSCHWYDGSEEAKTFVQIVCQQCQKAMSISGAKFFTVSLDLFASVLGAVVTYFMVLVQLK

[2] = target: T1, Or85a (OR/ORCO complex in Or85a-OSNs); test: perforated patch clamp of Or85a-OSNs, inward receptor current; type: cell-based; details: 35-ms odor pulses, no acetophenone; excitatory odor (agonist); nominal concentration in saline; voltage-clamped; read-out: K 1/2

SMILES | IC50 [1] [mM] | EC50 [2] [mM]
CC(=O)c1ccccc1 [acetophenone] | 27 ± 13 | –
CCOC(=O)CC(C)O (centres unmarked) [ethyl 3-hydroxybutyrate] | – | 1.1 ± 0.2

From paper PMC5676773, “Odor-evoked inhibition of olfactory sensory neurons drives olfactory perception in Drosophila” (Nature Communications, 2017)
